Data as given in ChEMBL document CHEMBL1136235, “Synthesis and biological activity of piperazine-based dual MMP-13 and TNF-alpha converting enzyme inhibitors” (Bioorg Med Chem Lett, 2003).

Key:
Interstitial collagenase = biological target: T1, Interstitial collagenase (Homo sapiens, UniProt P03956); experiment: In vitro inhibition of matrix metalloprotease-1.
T1 sequence (P03956 whole entry): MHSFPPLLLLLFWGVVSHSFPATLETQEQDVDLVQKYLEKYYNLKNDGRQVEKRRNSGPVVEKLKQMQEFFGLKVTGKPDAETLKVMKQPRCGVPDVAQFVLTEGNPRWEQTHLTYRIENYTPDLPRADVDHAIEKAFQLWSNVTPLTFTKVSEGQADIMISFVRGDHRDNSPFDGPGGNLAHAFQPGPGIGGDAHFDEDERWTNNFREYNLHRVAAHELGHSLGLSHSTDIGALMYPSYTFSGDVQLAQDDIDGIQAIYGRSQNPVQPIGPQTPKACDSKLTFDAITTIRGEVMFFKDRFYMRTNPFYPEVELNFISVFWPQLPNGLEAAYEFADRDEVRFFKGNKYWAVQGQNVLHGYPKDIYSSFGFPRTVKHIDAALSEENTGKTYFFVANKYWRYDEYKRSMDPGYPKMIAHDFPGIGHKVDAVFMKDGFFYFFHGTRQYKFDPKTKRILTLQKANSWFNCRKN

[1] = biological target: T2, Disintegrin and metalloproteinase domain-containing protein 17 (Homo sapiens, UniProt P78536); experiment: Inhibition of Tumor necrosis factor-alpha (TNF-alpha) release in human whole blood; assay type: functional, tissue-based
[2] = biological target: T2, Disintegrin and metalloproteinase domain-containing protein 17; experiment: Inhibition of human recombinant tumor necrosis factor-alpha converting enzyme.
Rattus norvegicus [3] = experiment: Inhibition of TNF-alpha production in an acute rat LPS-induced model at the dose of 30 mg/kg; assay type: functional
[4] = Half in rat i.v.; assay type: ADME, organism-based; conditions: in vivo, iv
Rattus norvegicus [5] = species: Rattus norvegicus; experiment: (§1) Pharmacokinetic property (Clp) in rat; assay type: ADME, organism-based; conditions: in vivo
Collagenase 3 = Collagenase 3 (Homo sapiens, UniProt P45452); experiment: In vitro inhibition of matrix metalloprotease-13.
[6] = Pharmacokinetic property (Vdss) in rat; assay type: ADME, organism-based; conditions: in vivo, read-out: Vdss
Rattus norvegicus [7] = species: Rattus norvegicus; experiment: Concentration required for TNF-alpha production in an acute rat LPS-induced model; assay type: functional
[8] = Half life in rat i.v.; assay type: ADME, organism-based; conditions: in vivo, iv
[9] = as §1; assay type: ADME, organism-based; conditions: plasma, read-out: Clp

T2 sequence (P78536 whole entry, the tested form may be a part): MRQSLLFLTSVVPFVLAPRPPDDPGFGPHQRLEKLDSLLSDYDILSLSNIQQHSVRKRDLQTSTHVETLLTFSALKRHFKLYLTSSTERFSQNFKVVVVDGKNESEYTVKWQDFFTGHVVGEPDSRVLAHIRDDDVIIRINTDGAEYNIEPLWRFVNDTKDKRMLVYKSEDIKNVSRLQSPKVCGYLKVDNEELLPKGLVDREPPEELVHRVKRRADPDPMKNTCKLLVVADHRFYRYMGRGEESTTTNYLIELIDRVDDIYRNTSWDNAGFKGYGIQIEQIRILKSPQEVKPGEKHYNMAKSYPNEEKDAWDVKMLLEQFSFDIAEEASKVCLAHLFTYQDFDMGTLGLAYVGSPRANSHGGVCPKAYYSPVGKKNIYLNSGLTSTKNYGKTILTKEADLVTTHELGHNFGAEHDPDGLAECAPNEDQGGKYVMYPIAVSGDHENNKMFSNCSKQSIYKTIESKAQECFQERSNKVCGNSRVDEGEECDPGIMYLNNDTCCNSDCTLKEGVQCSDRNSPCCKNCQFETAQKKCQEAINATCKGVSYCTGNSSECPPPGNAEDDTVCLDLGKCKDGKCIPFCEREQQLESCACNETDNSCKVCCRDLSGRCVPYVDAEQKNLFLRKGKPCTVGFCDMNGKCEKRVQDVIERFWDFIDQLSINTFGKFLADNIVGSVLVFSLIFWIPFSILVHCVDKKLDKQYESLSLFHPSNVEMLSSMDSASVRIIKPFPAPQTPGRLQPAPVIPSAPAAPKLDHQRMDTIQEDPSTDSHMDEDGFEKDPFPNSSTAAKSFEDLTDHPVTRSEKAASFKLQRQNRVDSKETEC

Row | Compound | IC50 (Interstitial collagenase) [nM] | half-life [4] [min] | Clp (Rattus norvegicus [5]) [mL/min/kg] | IC50 (Collagenase 3) [nM] | Vd [6] [L/kg] | half-life [8] [min] | clearance [9] [mL/min/kg] | IC50 [1] [nM] | IC50 [2] [nM] | inhibition in vivo at 30 mg/kg (Rattus norvegicus [3]) [%] | ED50 (Rattus norvegicus [7]) [mg/kg]
1 | Cc1ccccc1COc1ccc(S(=O)(=O)N2CCN(Cc3ccccc3)[C@@H](C)[C@@H]2C(=O)NO)cc1 | 17000 |  |  |  |  |  |  | 33000 | 68 |  | 
2 | CC(=O)N1CCN(S(=O)(=O)c2ccc(OCc3ccc(F)cc3)cc2)[C@@H](C(=O)NO)[C@@H]1C | 1700 |  |  | 3 |  |  |  | 2000 | 6 |  | 
3 | CC(=O)N1CCN(S(=O)(=O)c2ccc(OCc3cncc4ccccc34)cc2)[C@@H](C(=O)NO)[C@@H]1C | 6400 |  |  | 98 |  |  |  | 400 |  |  | 
4 | CC(=O)N1CCN(S(=O)(=O)c2ccc(OCc3cccnc3C)cc2)[C@@H](C(=O)NO)[C@@H]1C | 3400 |  |  | 8 |  |  |  | 800 | 5 |  | 
5 | CC(=O)N1CCN(S(=O)(=O)c2ccc(OCc3ccccc3C(F)(F)F)cc2)[C@@H](C(=O)NO)[C@@H]1C | 10000 |  |  | 127 |  |  |  | 2000 | 11 |  | 
6 | Cc1ccc(S(=O)(=O)N2CCN(S(=O)(=O)c3ccc(OCc4ccccc4C)cc3)[C@@H](C(=O)NO)[C@@H]2C)cc1 |  |  |  |  |  |  |  | 26000 | 32 |  | 
7 | CC(=O)N1CCN(S(=O)(=O)c2ccc(OCc3ccnc4ccccc34)cc2)[C@@H](C(=O)NO)[C@@H]1C | 830 |  |  | 17 |  |  |  | 300 |  |  | 
8 | Cc1ccccc1COc1ccc(S(=O)(=O)N2CCN(C(=O)NC(C)C)[C@@H](C)[C@@H]2C(=O)NO)cc1 | 1400 |  |  | 4 |  |  |  | 3000 | 34 |  | 
9 | Cc1ccccc1COc1ccc(S(=O)(=O)N2CCN(C)[C@@H](C)[C@@H]2C(=O)NO)cc1 |  |  |  |  |  |  |  | 33000 | 31 |  | 
10 | CC[C@H](C)[C@H](NC(=O)C(CC(C)C)[C@H](C(C)C)N(O)C=O)C(=O)Nc1ccccn1 (stereo partly specified) | 19 |  |  | 7 |  |  |  |  | 40 |  | 
11 | Cc1ccccc1COc1ccc(S(=O)(=O)N2CCN(C(=O)Nc3ccccc3)[C@@H](C)[C@@H]2C(=O)NO)cc1 | 2200 |  |  |  |  |  |  | 12000 | 26 |  | 
12 | CCc1ccccc1COc1ccc(S(=O)(=O)N2CCN(C(C)=O)[C@@H](C)[C@@H]2C(=O)NO)cc1 | 6700 |  |  | 40 |  |  |  | 600 | 7 |  | 

More lines, main results first:

Row | IC50 (Interstitial collagenase) [nM] | half-life [4] [min] | Clp (Rattus norvegicus [5]) [mL/min/kg] | IC50 (Collagenase 3) [nM] | Vd [6] [L/kg] | half-life [8] [min] | clearance [9] [mL/min/kg] | Compound | IC50 [1] [nM] | IC50 [2] [nM] | inhibition in vivo at 30 mg/kg (Rattus norvegicus [3]) [%] | ED50 (Rattus norvegicus [7]) [mg/kg]
13 | 1300 | 12.6 | 98 | 4 | 2.1 |  |  | Cc1ccccc1COc1ccc(S(=O)(=O)N2CCN(S(C)(=O)=O)[C@@H](C)[C@@H]2C(=O)NO)cc1 | 1000 | 6 | 55 | 
14 | 1500 |  |  | 4 |  |  |  | COC(=O)N1CCN(S(=O)(=O)c2ccc(OCc3ccccc3C)cc2)[C@@H](C(=O)NO)[C@@H]1C | 2000 | 14 |  | 
15 | 12000 |  |  | 11 |  |  |  | C[C@@H]1NCCN(S(=O)(=O)c2ccc(OCc3ccccc3)cc2)[C@H]1C(=O)NO | 18000 |  |  | 
16 |  |  |  |  | 0.6 | 16.2 | 54 | CC(=O)N1CCN(S(=O)(=O)c2ccc(OCc3ccccc3C)cc2)[C@@H](C(=O)NO)[C@@H]1C | 1000 | 6 |  | 17
17 | 1500 |  |  | 6 |  |  |  | CCOC(=O)N1CCN(S(=O)(=O)c2ccc(OCc3ccccc3C)cc2)[C@@H](C(=O)NO)[C@@H]1C | 3000 | 28 |  | 
18 | 52 |  |  | 113 |  |  |  | C#CCOc1ccc(S(=O)(=O)N(C)c2c(C)cc(Br)cc2C(=O)NO)cc1 |  |  |  | 
19 | 1900 |  |  | 7 |  |  |  | CC(=O)N1CCN(S(=O)(=O)c2ccc(OCc3cc(F)ccc3C)cc2)[C@@H](C(=O)NO)[C@@H]1C | 1000 | 7 |  | 
20 | 3800 |  |  | 20 |  |  |  | CC(=O)N1CCN(S(=O)(=O)c2ccc(OCc3cc(F)cc(F)c3)cc2)[C@@H](C(=O)NO)[C@@H]1C | 1000 | 6 |  | 
21 | 12000 |  |  | 19 | 1.1 | 14.4 | 83 | Cc1ccccc1COc1ccc(S(=O)(=O)N2CCN[C@@H](C)[C@@H]2C(=O)NO)cc1 | 2000 |  | 39 | 
